Data published in BindingDB's records for PubMed 2156995 (Rhone-Poulenc Sante, 1990).
Values joined by “and” are separate entries in the source; they are usually repeats but may differ in a detail not shown here. Equal entries are not always repeated.

Biological target: Platelet-activating factor receptor (Homo sapiens, UniProt P25105)
Sequence (P25105 whole entry): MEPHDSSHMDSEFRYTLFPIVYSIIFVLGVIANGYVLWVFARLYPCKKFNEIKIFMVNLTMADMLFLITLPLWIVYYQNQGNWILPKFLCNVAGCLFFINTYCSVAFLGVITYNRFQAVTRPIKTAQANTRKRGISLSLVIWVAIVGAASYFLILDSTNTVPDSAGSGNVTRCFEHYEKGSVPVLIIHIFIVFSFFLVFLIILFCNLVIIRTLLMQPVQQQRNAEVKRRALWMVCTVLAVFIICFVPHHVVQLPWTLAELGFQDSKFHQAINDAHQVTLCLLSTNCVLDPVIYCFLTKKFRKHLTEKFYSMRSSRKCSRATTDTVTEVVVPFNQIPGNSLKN

Row | Structure (SMILES) | Ki
1 | Cc1nnc2n1-c1sc(Br)cc1C(c1ccccc1Cl)=NC2 [2-Bromo-4-(2-chloro-phenyl)-9-methyl-6H-1-thia-5,7,8,9a-tetraaza-cyclopenta[e]azulene] | 80.5 nM and 17.4 nM
2 | C[C@@H]1C(=O)O[C@H]2[C@H](O)C34[C@H]5C[C@@H](C(C)(C)C)C36C(O)C(=O)O[C@H]6O[C@@]4(C(=O)O5)[C@@]12O (some centres undefined) [BN 52021] | 964 nM and 643 nM
3 | CCCCCCCCCCCCCCCCCCNC(=O)OCC(COCCCC[n+]1ccsc1)OC(=O)OC (centres undefined) [CAS_129364] | 38.6 nM and 16.9 nM
4 | CCCCCCCCCCCCCCCCCCNC(=O)OCC1CCC(COP(=O)([O-])OCC[n+]2cccc3ccccc32)O1 (centres undefined) [NSC_108044] | 129 nM and 130 nM
